According to patent US20250230193A1, “CYCLIC COMPOUND HAVING SELECTIVE KRAS INHIBITORY EFFECT ON HRAS AND NRAS” (CHUGAI SEIYAKU KABUSHIKI KAISHA, priority 2022, published 2025):
*1 amine or outer side, *2 acyl side, *3 side chain or, on linkers, in order; H or OH if unused. Where a SMILES comes first, the peptide text is derived from it. Bridges are numbered along the chain shown (N, C = ends). [ ]: non-standard residue; d: D form. The star is where a group is joined. hPhe(3,5-F2-4-CF3) = N[C@@H](CCc1cc(F)c(C(F)(F)F)c(F)c1)C(=O)O; NPrPhe(4-CF3) = CCCN[C@@H](Cc1ccc(C(F)(F)F)cc1)C(=O)O; X16 = O=C([C@@H](N[*:1])C1CC(F)(F)C1)[*:2]; NMeGly(cPent) = CN[C@H](C(=O)O)C1CCCC1; X9 = C[C@@](N[*:1])(C(=O)[*:2])C1CC1; NMeD = CN[C@@H](CC(=O)O)C(=O)O; NMeL = CN[C@@H](CC(C)C)C(=O)O; Iva = CC[C@](C)(N)C(=O)O; Morpholide = C1CN(*)CCO1; Ac5c = NC1(C(=O)O)CCCC1; Aze = O=C(O)[C@@H]1CCN1; Sar = CNCC(=O)O

Key:
[1] = biological target: GDP-bound HRAS wild-type protein (Homo sapiens, UniProt P01112); test: Binding to HRAS by surface plasmon resonance (SPR), Single Cycle Kinetics; conditions: KD ratio HRAS/KRAS, SPR
Sequence of GDP-bound HRAS wild-type protein (P01112 whole entry): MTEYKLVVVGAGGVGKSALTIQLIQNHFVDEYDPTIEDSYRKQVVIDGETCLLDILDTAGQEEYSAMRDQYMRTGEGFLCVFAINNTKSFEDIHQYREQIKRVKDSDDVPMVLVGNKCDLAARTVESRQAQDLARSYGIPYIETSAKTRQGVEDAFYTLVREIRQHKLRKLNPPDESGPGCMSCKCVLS

[2] = biological target: GDP-bound NRAS wild-type protein (Homo sapiens, UniProt P01111); test: Binding to NRAS by surface plasmon resonance (SPR), Single Cycle Kinetics; conditions: KD ratio NRAS/KRAS, SPR
Sequence of GDP-bound NRAS wild-type protein (P01111 whole entry): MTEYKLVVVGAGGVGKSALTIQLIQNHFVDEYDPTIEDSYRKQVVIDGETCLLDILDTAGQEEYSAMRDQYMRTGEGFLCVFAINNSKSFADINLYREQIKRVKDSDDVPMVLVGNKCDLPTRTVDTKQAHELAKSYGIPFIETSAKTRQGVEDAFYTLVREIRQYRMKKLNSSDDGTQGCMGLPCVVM

| Structure (SMILES) | HRAS/KRAS (ratio of KD value with respect to GDP-bound HRAS wild-type protein to KD value with respect to KRAS) [1] | NRAS/KRAS (ratio of KD value with respect to GDP-bound NRAS wild-type protein to KD value with respect to KRAS) [2] |
| --- | --- | --- |
| CCCN1C(=O)[C@@H]2CCN2C(=O)CN(C)C(=O)[C@H](C2CC(F)(F)C2)NC(=O)[C@H](CC(C)C)N(C)C(=O)C[C@@H](C(=O)N2CCOCC2)N(C)C(=O)[C@H](C2CCCC2)N(C)C(=O)C2(CCCC2)NC(=O)[C@@H]2CCCN2C(=O)[C@H](CCc2cc(F)c(C(F)(F)F)c(F)c2)NC(=O)CN(C)C(=O)[C@@H]1Cc1ccc(C(F)(F)F)cc1 [PP0787] ([NMeL][X16][Sar][Aze][NPrPhe(4-CF3)][Sar][hPhe(3,5-F2-4-CF3)]P[Ac5c][NMeGly(cPent)][NMeD]-Morpholide; lactam N-11) | B (a compound having 3 or more and less than 10 is denoted as B) | C (A compound having a KD ratio of 0.1 or more and less than 3 is denoted as C) |
| CCCN1C(=O)CN(C)C(=O)CN(C)C(=O)[C@H]([C@@H](C)CC)NC(=O)[C@H](CC(C)C)N(C)C(=O)C[C@@H](C(=O)N(C)C)N(C)C(=O)[C@H](C2CCCC2)N(C)C(=O)C2(CCCC2)NC(=O)[C@@H]2CCCN2C(=O)[C@H](CCc2cc(F)c(C(F)(F)F)c(F)c2)NC(=O)CN(C)C(=O)[C@@H]1Cc1ccc(C(F)(F)F)cc1 [PP0788] ([NMeL]I[Sar][Sar][NPrPhe(4-CF3)][Sar][hPhe(3,5-F2-4-CF3)]P[Ac5c][NMeGly(cPent)][NMeD]-NMe2; lactam N-11) | C (A compound having a KD ratio of 0.1 or more and less than 3 is denoted as C) | B (a compound having 3 or more and less than 10 is denoted as B) |
| CCCN1C(=O)[C@@H]2CCN2C(=O)CN(C)C(=O)[C@H]([C@@H](C)CC)NC(=O)[C@H](CC(C)C)N(C)C(=O)C[C@@H](C(=O)N2CCOCC2)N(C)C(=O)[C@H](C2CCCC2)N(C)C(=O)C2(CCCC2)NC(=O)[C@@H]2CCCN2C(=O)[C@H](CCc2cc(F)c(C(F)(F)F)c(F)c2)NC(=O)CN(C)C(=O)[C@@H]1Cc1ccc(C(F)(F)F)cc1 [PP0789] ([NMeL]I[Sar][Aze][NPrPhe(4-CF3)][Sar][hPhe(3,5-F2-4-CF3)]P[Ac5c][NMeGly(cPent)][NMeD]-Morpholide; lactam N-11) | B (a compound having 3 or more and less than 10 is denoted as B) | C (A compound having a KD ratio of 0.1 or more and less than 3 is denoted as C) |
| CCCN1C(=O)[C@@H]2CCN2C(=O)CN(C)C(=O)[C@H]([C@@H](C)CC)NC(=O)[C@H](CC(C)C)N(C)C(=O)C[C@@H](C(=O)N2CCOCC2)N(C)C(=O)[C@H](C2CCCC2)N(C)C(=O)[C@](C)(CC)NC(=O)[C@@H]2CCCN2C(=O)[C@H](CCc2cc(F)c(C(F)(F)F)c(F)c2)NC(=O)CN(C)C(=O)[C@@H]1Cc1ccc(C(F)(F)F)cc1 [PP0790] ([NMeL]I[Sar][Aze][NPrPhe(4-CF3)][Sar][hPhe(3,5-F2-4-CF3)]P[Iva][NMeGly(cPent)][NMeD]-Morpholide; lactam N-11) | B (a compound having 3 or more and less than 10 is denoted as B) | C (A compound having a KD ratio of 0.1 or more and less than 3 is denoted as C) |
| CCCN1C(=O)[C@@H]2CCN2C(=O)CN(C)C(=O)[C@H]([C@@H](C)CC)NC(=O)[C@H](CC(C)C)N(C)C(=O)C[C@@H](C(=O)N2CCOCC2)N(C)C(=O)[C@H](C2CCCC2)N(C)C(=O)[C@](C)(C2CC2)NC(=O)[C@@H]2CCCN2C(=O)[C@H](CCc2cc(F)c(C(F)(F)F)c(F)c2)NC(=O)CN(C)C(=O)[C@@H]1Cc1ccc(C(F)(F)F)cc1 [PP0791] ([NMeL]I[Sar][Aze][NPrPhe(4-CF3)][Sar][hPhe(3,5-F2-4-CF3)]P[X9][NMeGly(cPent)][NMeD]-Morpholide; lactam N-11) | B (a compound having 3 or more and less than 10 is denoted as B) | C (A compound having a KD ratio of 0.1 or more and less than 3 is denoted as C) |
